Data on ten molecules can be found in ChEMBL document CHEMBL1201862, “PubChem BioAssay data set” (2004).

Among the test systems are RPMI-8226; NCI-H460; HCT-116; A549; COLO 205; EKVX; NCI-H23; SK-OV-3; SK-MEL-28; MCF7; 786-0; HT-29; OVCAR-8; CCRF-CEM; HOP-62; NCI-H226; HCC 2998; HOP-92; MOLT-4; SNB-75.
What all share (assay): inhibition of tumour cell growth, NCI panel, 48 h

Structures are written as SMILES.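 Five concentrations, 48 hours, 96-well plates. GI50: concentration for 50% inhibition of growth.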 Calls of active or inactive are those of the source. Cut-off read from the data, not from the text of the source: active = GI50 up to about 1.1 µM and inactive = higher. Some results are limits rather than exact numbers.

For the molecule `O=C1OC(C(O)C(O)C(O)CO)C(O)C1O` (stereo not given), the GI50 in the test on RPMI-8226, with NCI-H460, with HCT-116, in the test on A549, in the test on COLO 205 and in the test on EKVX was > 100 µM (inactive) each time. Also, the GI50 in the test on NCI-H23, in the test with SK-OV-3, in the test on SK-MEL-28, in the test with MCF7, with 786-0 and in the test on HT-29 was > 100 µM (inactive) each time. In addition, the GI50 with OVCAR-8, in the test with CCRF-CEM, with HOP-62, with NCI-H226, in the test on HCC 2998 and with HOP-92 was > 100 µM (inactive) in each case. Also, the GI50 in the test on MOLT-4 and with SNB-75 was > 100 µM (inactive) in each case.

Turning to `C/C(=N\N=C(/S)N1CC2CCC(CC2)C1)c1cccc[n+]1[O-]`, the GI50 was 0.381 µM (active) in the test with RPMI-8226; 8.09 µM (inactive) in the test on NCI-H460; 3.61 µM (inactive) in the test with HCT-116; 4.98 µM (inactive) in the test on A549; 3.66 µM (inactive) in the test on COLO 205; 7.45 µM (inactive) with EKVX. Besides, the GI50 is 16.6 µM (inactive) with NCI-H23; 35.8 µM (inactive) in the test on SK-OV-3; 5.2 µM (inactive) with SK-MEL-28; 5.7 µM (inactive) in the test with MCF7; 6.9 µM (inactive) in the test on 786-0; 1.84 µM (inactive) with HT-29. For the same molecule, the GI50 with OVCAR-8 was 6.44 µM (inactive); in the test on CCRF-CEM, 0.238 µM (active); in the test on HOP-62 it was 12.6 µM (inactive); in the test with NCI-H226, 3.41 µM (inactive); with HCC 2998, 10.8 µM (inactive); with HOP-92 it was 13.2 µM (inactive). The values for the GI50 with MOLT-4 and in the test on SNB-75 were 0.373 µM (active) and 11.5 µM (inactive), respectively.

Consider `CCOC1SC(SC)=NN1C(=O)C(OC(C)=O)C(OC(C)=O)C(OC(C)=O)C(OC(C)=O)C(=O)N1N=C(SC)SC1OCC` (stereo not given), for which the GI50 was > 100 µM (inactive) in the test with RPMI-8226; > 100 µM (inactive) in the test on NCI-H460; 88.5 µM (inactive) in the test with HCT-116; > 100 µM (inactive) with A549; > 100 µM (inactive) in the test with COLO 205; > 100 µM (inactive) in the test on EKVX. Moreover, the GI50 in the test with NCI-H23 was > 100 µM (inactive); in the test with SK-OV-3, > 100 µM (inactive); in the test on SK-MEL-28, > 100 µM (inactive); in the test with MCF7 it was > 100 µM (inactive); with 786-0, 62.1 µM (inactive); with HT-29, > 100 µM (inactive). Besides, the GI50 is > 100 µM (inactive) in the test on OVCAR-8; > 100 µM (inactive) with CCRF-CEM; > 100 µM (inactive) in the test with HOP-62; > 100 µM (inactive) in the test on NCI-H226; > 100 µM (inactive) in the test on HCC 2998; 38.2 µM (inactive) with HOP-92. For the same molecule, the results for the GI50 with MOLT-4 and with SNB-75 were > 100 µM (inactive) and 48.3 µM (inactive), respectively.

For the molecule `Cc1cc(C)c2ccc(N3CCNCC3)nc2n1`, the GI50 in the test on RPMI-8226 was > 100 µM (inactive); with NCI-H460 it was > 100 µM (inactive); in the test on HCT-116 it was 84.1 µM (inactive); in the test on A549 it was > 100 µM (inactive); in the test with COLO 205 it was 64.6 µM (inactive); in the test on EKVX, > 100 µM (inactive). Also, the GI50 in the test on NCI-H23 is > 100 µM (inactive); in the test on SK-OV-3 it was > 100 µM (inactive); in the test with SK-MEL-28, > 100 µM (inactive); with MCF7 it was > 100 µM (inactive); in the test on 786-0, 67.9 µM (inactive); in the test on HT-29, 57.7 µM (inactive). The GI50 in the test with OVCAR-8, with CCRF-CEM, in the test on HOP-62, with NCI-H226, in the test with HCC 2998 and in the test on HOP-92 was > 100 µM (inactive) in each case. Further, the GI50 in the test with MOLT-4 and with SNB-75 was > 100 µM (inactive) each time.

`O=C1c2ccccc2C(=O)c2c1ccc1nc3c(nc21)-c1c2ccccc2cc2cccc-3c12`: the GI50 was 39.5 µM (inactive) in the test on RPMI-8226; 26.2 µM (inactive) in the test on NCI-H460; 5.56 µM (inactive) in the test with HCT-116; 45.6 µM (inactive) with A549; 90.8 µM (inactive) with COLO 205; 18.3 µM (inactive) in the test with EKVX. Further, the GI50 with NCI-H23 was 41.6 µM (inactive); with SK-OV-3 it was 41.1 µM (inactive); with SK-MEL-28, > 92.7 µM (inactive); in the test on MCF7, 17.6 µM (inactive); in the test with 786-0 it was 21.5 µM (inactive); in the test with HT-29, 27 µM (inactive). In addition, the GI50 in the test on OVCAR-8 is 27.4 µM (inactive); in the test on CCRF-CEM, 5.33 µM (inactive); with HOP-62, 26.5 µM (inactive); in the test on NCI-H226, > 68.9 µM (inactive); in the test with HCC 2998, > 95.3 µM (inactive); in the test on HOP-92, > 73.8 µM (inactive). Moreover, the GI50 in the test on MOLT-4 is 18.6 µM (inactive); in the test on SNB-75 it was 19.5 µM (inactive).

Consider `NCc1ccc(O)c(O)c1O`, for which the GI50 was 26.9 µM (inactive) in the test on RPMI-8226; 18.5 µM (inactive) in the test with NCI-H460; 16.7 µM (inactive) in the test with HCT-116; 27.6 µM (inactive) in the test on A549; 19.2 µM (inactive) in the test with COLO 205; 39.7 µM (inactive) in the test with EKVX. Besides, the GI50 in the test on NCI-H23 was 28.1 µM (inactive); in the test on SK-OV-3, > 78 µM (inactive); with SK-MEL-28 it was 62.5 µM (inactive); in the test on MCF7 it was 16.8 µM (inactive); in the test with 786-0, 15.9 µM (inactive); in the test on HT-29, 16.9 µM (inactive). The GI50 with OVCAR-8 was 23.9 µM (inactive); in the test on CCRF-CEM, 10.9 µM (inactive); with HOP-62 it was 46.6 µM (inactive); in the test with NCI-H226 it was > 46.8 µM (inactive); in the test on HCC 2998 it was > 66.4 µM (inactive); with HOP-92 it was > 58.6 µM (inactive). Also, the GI50 is 28.4 µM (inactive) in the test on MOLT-4 and 26.4 µM (inactive) in the test on SNB-75.

For `C[N+]12CCCCC1C(CN1C(=O)Cc3c4ccccc4c(c4ccccc34)CC1=O)CCC2` (stereo not given), the GI50 in the test with RPMI-8226, in the test on NCI-H460, in the test with HCT-116, in the test on A549, with COLO 205 and with EKVX was > 100 µM (inactive) throughout. Also, the GI50 with NCI-H23, in the test on SK-OV-3, with SK-MEL-28, in the test with MCF7, in the test on 786-0 and in the test with HT-29 was > 100 µM (inactive) each time. In addition, the GI50 with OVCAR-8, in the test with CCRF-CEM, in the test on HOP-62, in the test with NCI-H226, with HCC 2998 and with HOP-92 was > 100 µM (inactive) each time. Also, the GI50 in the test on MOLT-4 and with SNB-75 was > 100 µM (inactive) in each case.

`CC1(C)CCCCCCCCCC(C)(CCCO)C1=O` (stereo not given): the GI50 with RPMI-8226 was 26.5 µM (inactive); in the test with NCI-H460, 18.4 µM (inactive); with HCT-116 it was 17.3 µM (inactive); in the test on A549, 15.5 µM (inactive); with COLO 205, 16.3 µM (inactive); with EKVX, 15.8 µM (inactive). The GI50 in the test on NCI-H23 was 15.5 µM (inactive); with SK-OV-3 it was 17.4 µM (inactive); in the test with SK-MEL-28 it was 18.2 µM (inactive); with MCF7, 17.1 µM (inactive); in the test with 786-0, 16.9 µM (inactive); in the test on HT-29 it was 13.7 µM (inactive). The GI50 was 18.4 µM (inactive) with OVCAR-8; 28.9 µM (inactive) in the test with CCRF-CEM; 16.6 µM (inactive) with HOP-62; 16.1 µM (inactive) in the test with NCI-H226; 17.7 µM (inactive) in the test on HCC 2998; 14.5 µM (inactive) with HOP-92. Also, the GI50 was 14.1 µM (inactive) in the test with MOLT-4 and 17.9 µM (inactive) with SNB-75.

`CCC/C(Cl)=N\OC(=O)Nc1ccc(Br)cc1`: the GI50 with RPMI-8226 is 2.96 µM (inactive); in the test with NCI-H460, 16.5 µM (inactive); in the test on HCT-116 it was 9.48 µM (inactive); with A549, 18.4 µM (inactive); with COLO 205, 2.73 µM (inactive); in the test on EKVX, 14.6 µM (inactive). Besides, the GI50 is 17.4 µM (inactive) in the test on NCI-H23; 16.8 µM (inactive) in the test with SK-OV-3; 18.2 µM (inactive) in the test with SK-MEL-28; 6.47 µM (inactive) with MCF7; 7.24 µM (inactive) in the test on 786-0; 17.7 µM (inactive) in the test with HT-29. For the same molecule, the GI50 in the test with OVCAR-8 was 14.6 µM (inactive); in the test on CCRF-CEM, 1.78 µM (inactive); in the test on HOP-62, 20.9 µM (inactive); with NCI-H226, 21.6 µM (inactive); in the test with HCC 2998 it was 17.3 µM (inactive); in the test on HOP-92, 3.33 µM (inactive). Moreover, the values for the GI50 in the test with MOLT-4 and in the test on SNB-75 were 2.55 µM (inactive) and 13.5 µM (inactive), respectively.

On to `C/C(=N\NC(=S)N1CCN(c2ccccn2)CC1)c1ccccn1`, for which the GI50 is 0.00681 µM (active) with RPMI-8226; 0.252 µM (active) in the test on NCI-H460; 0.00158 µM (active) in the test on HCT-116; 0.111 µM (active) with A549; 0.00419 µM (active) with COLO 205; < 0.0154 µM (active) with EKVX. For the same molecule, the GI50 is 0.022 µM (active) in the test with NCI-H23; 0.0593 µM (active) in the test with SK-OV-3; 0.208 µM (active) with SK-MEL-28; 0.00782 µM (active) with MCF7; 0.074 µM (active) in the test on 786-0; 0.0745 µM (active) in the test with HT-29. Also, the GI50 with OVCAR-8 was 0.00281 µM (active); in the test with CCRF-CEM, 0.00337 µM (active); in the test with HOP-62, 0.035 µM (active); in the test on NCI-H226, 0.649 µM (active); with HCC 2998, 0.931 µM (active); in the test on HOP-92 it was 0.0776 µM (active). The results for the GI50 with MOLT-4 and with SNB-75 were 0.0156 µM (active) and 3.23 µM (inactive), respectively.
